Patent US4175081A, “5-Substituted thiadiazole ureas” (priority 1977, dated 1979)

How the values were obtained:
Crabgrass (CG) [1] = test: Pre-emergence herbicide test; format: in vivo, Digitaria sanquinalis; conditions: Digitaria sanguinalis, pre-emergence, 336 h, two weeks after treatment; for pest or weed control: 2 lb/acre; for pest or weed control at 4483.4 g/ha: 4 lb/acre
How it was run: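 Crabgrass (Digitaria sanquinalis) was surface seeded in 3' plastic pots of potting soil, covered with screened soil, and watered by sub-irrigation in greenhouse trays. Pots were seeded one day before spraying in a hood with a moving belt and fixed nozzle. Plants stayed in the greenhouse on sub-irrigation, and pre-emergence control was rated visually two weeks after treatment.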

Johnson grass (JG) [2] = test: Pre-emergence herbicide test; format: in vivo, Sorgum helepense; conditions: Sorghum halepense, 336 h, two weeks after treatment; for pest or weed control at 2241.7 g/ha: 2 lb/acre; for pest or weed control at 4483.4 g/ha: 4 lb/acre
How it was run: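 Visual injury or control rating two weeks post-treatment, after pre-emergence spray of 8 or 4 lbs active per acre (38 gal/acre) onto pots sown the previous day. Greenhouse watering by sub-irrigation only.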

Barnyard grass (BG) [3] = test: Pre-emergence herbicide test; format: in vivo; conditions: Echinochloa crus-galli, 336 h, 2 lb/acre, two weeks after treatment
How it was run: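 Greenhouse pre-emergence spray test: pots seeded one day before treatment received compound at rates of 8 or 4 lb/acre (38 gal/acre). Visual injury/control scores for Echinochloa crus-galli taken at two weeks, with watering by sub-irrigation only.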

Amaranth pigweed (PW) [4] = test: Pre-emergence herbicide test; format: in vivo, Amaranthus retroflexus; conditions: 336 h, two weeks after treatment; for pest or weed control at 4483.4 g/ha: 4 lb/acre
How it was run: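 Visual injury or control ratings were made at two weeks on pre-emergence pots, sub-irrigated in the greenhouse. Seeds were sown a day before a hood spray delivering 8 lbs/acre (or 4 lbs/acre) of compound in 38 gallons per acre.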

Turnip (TP) [5] = test: Pre-emergence herbicide test; format: in vivo, Brassica sp.; conditions: Brassica rapa, pre-emergence, 336 h, two weeks after treatment; for pest or weed control at 2241.7 g/ha: 2 lb/acre; for pest or weed control at 4483.4 g/ha: 4 lb/acre
How it was run: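 In this pre-emergence greenhouse test, turnip was seeded on the surface of potting soil in 3' plastic pots, lightly covered with screened soil, and watered from below. One day later the pots were sprayed in a belt-fed spray hood. Watering continued only by sub-irrigation, and percent control was visually scored two weeks after treatment.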

Cotton (CT) [6] = test: Pre-emergence herbicide test; format: in vivo, Gossypium hirsutum var. DPL smooth leaf; conditions: Gossypium hirsutum, 336 h, two weeks after treatment; for pest or weed control at 2241.7 g/ha: 2 lb/acre; for pest or weed control at 4483.4 g/ha: 4 lb/acre
How it was run: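 Visual injury/control ratings were taken at two weeks post-spray. Pots seeded a day earlier received compound pre-emergence at 8 lbs/acre, or 4 lbs/acre, in a 38 gallon/acre spray volume, and were then held in the greenhouse, watered only from below.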

Corn (CN) [7] = test: Pre-emergence herbicide test; format: in vivo; conditions: Zea mays, 336 h, two weeks after treatment; for pest or weed control at 2241.7 g/ha: 2 lb/acre; for pest or weed control at 4483.4 g/ha: 4 lb/acre
How it was run: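 Visual injury/control ratings were made 2 weeks post-spray on corn pots seeded (4 seeds, seed-diameter depth) the day before treatment. Application was a belt-hood spray of 38 gal/acre delivering 8 lbs active per acre, with a 4 lbs/acre rate also formulated. Watering was by sub-irrigation throughout.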

Bean (BN) [8] = test: Pre-emergence herbicide test; format: in vivo, Phaseolus vulgaris var. Black Valentine; conditions: Phaseolus vulgaris, 336 h, two weeks after treatment; for pest or weed control at 2241.7 g/ha: 2 lb/acre; for pest or weed control at 4483.4 g/ha: 4 lb/acre
How it was run: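 Visual injury/control ratings were taken two weeks post-spray on sub-irrigated Phaseolus vulgaris var. Black Valentine. Pots were sown a day before treatment. Pre-emergence spray delivered 8 lbs actual compound per acre (or 4 lbs/acre) at 38 gallons per acre.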

Crabgrass (CG) [9] = test: Post-emergence herbicide test; format: in vivo, Digitaria sanquinalis; conditions: Digitaria sanguinalis, post-emergence, 336 h, two weeks after treatment; for pest or weed control: 2 lb/acre; for pest or weed control at 4483.4 g/ha: 4 lb/acre
How it was run: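 Crabgrass (Digitaria sanquinalis) was surface seeded individually in 3' plastic pots of potting soil, covered with screened soil, and watered by sub-irrigation in greenhouse trays. Planting was staggered so seedlings reached the target stage together. Post-emergence sprays were applied in a hood with a removable belt and fixed nozzle, and control was visually rated two weeks after treatment.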

Johnson grass (JG) [10] = test: Post-emergence herbicide test; format: in vivo, Sorgum helepense; conditions: Sorghum halepense, 336 h, two weeks after treatment; for pest or weed control: 2 lb/acre; for pest or weed control at 4483.4 g/ha: 4 lb/acre
How it was run: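 Visual injury or control scores taken 2 weeks after a post-emergence spray of pot-grown plants. Application was 8 lbs/acre (or 4 lbs/acre) in 38 gal/acre. Plants were held in the greenhouse with sub-irrigation only.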

Barnyard grass (BG) [11] = test: Post-emergence herbicide test; format: in vivo; conditions: Echinochloa crus-galli, 336 h, 2 lb/acre, two weeks after treatment
How it was run: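 Greenhouse pot-grown barnyard grass seedlings sprayed post-emergence at 8 lbs active compound per acre (some at 4 lbs/acre) in 38 gallons per acre, then sub-irrigated. Injury or control rated visually two weeks after treatment.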

Amaranth pigweed (PW) [12] = test: Post-emergence herbicide test; format: in vivo, Amaranthus retroflexus; conditions: 336 h, two weeks after treatment; for pest or weed control at 4483.4 g/ha: 4 lb/acre
How it was run: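 Visual injury or control ratings were made two weeks after spraying, with greenhouse watering by sub-irrigation only. Treatment was post-emergence, when pigweed seedlings had 1 or 2 true leaves, at 8 lbs active compound per acre (4 lbs/acre formulations also made) in a 38 gallons-per-acre spray volume.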

Turnip (TP) [13] = test: Post-emergence herbicide test; format: in vivo, Brassica sp.; conditions: Brassica rapa, post-emergence, 336 h, two weeks after treatment; for pest or weed control at 2241.7 g/ha: 2 lb/acre; for pest or weed control at 4483.4 g/ha: 4 lb/acre
How it was run: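 A greenhouse post-emergence herbicide test on turnip. Seeds were sown on the surface of potting soil in 3' plastic pots, lightly covered with screened soil and watered from below. Planting was timed so seedlings had 1 or 2 true leaves above the cotyledons at spraying, done in a hood with a fixed nozzle. Control or injury was scored by eye after two weeks.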

Cotton (CT) [14] = test: Post-emergence herbicide test; format: in vivo, Gossypium hirsutum var. DPL smooth leaf; conditions: Gossypium hirsutum, post-emergence, 336 h, two weeks after treatment; for pest or weed control at 2241.7 g/ha: 2 lb/acre; for pest or weed control at 4483.4 g/ha: 4 lb/acre
How it was run: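 This greenhouse post-emergence test measured how well spray treatments controlled cotton. Seedlings of Gossypium hirsutum var. DPL smooth leaf, with expanded cotyledons and a first true leaf 1' in length, were sprayed with 50 ml formulations in a belt-fed spray hood. They were then returned to the greenhouse and watered only by sub-irrigation. Injury was scored visually as % control after two weeks.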

Corn (CN) [15] = test: Post-emergence herbicide test; format: in vivo; conditions: Zea mays, 336 h, two weeks after treatment; for pest or weed control: 2 lb/acre; for pest or weed control at 4483.4 g/ha: 4 lb/acre
How it was run: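 Greenhouse seedlings grown in potting soil and sprayed post-emergence at 8 lbs compound/acre (formulations also made for 4 lbs/acre) in 38 gallons/acre spray volume. Watering by sub-irrigation only. Injury or control rated visually two weeks after treatment.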

Bean (BN) [16] = test: Post-emergence herbicide test; format: in vivo, Phaseolus vulgaris var. Black Valentine; conditions: Phaseolus vulgaris, post-emergence, 336 h, two weeks after treatment; for pest or weed control at 2241.7 g/ha: 2 lb/acre; for pest or weed control at 4483.4 g/ha: 4 lb/acre
How it was run: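 Bean seedlings (Phaseolus vulgaris var. Black Valentine) were grown in potting soil in 3' pots until the primary leaves expanded. They were then sprayed under a hood with a removable belt and fixed nozzle, using 50 ml formulations. Afterward they were returned to the greenhouse and watered only by sub-irrigation. Percent control was judged visually two weeks after treatment.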

Structure (SMILES) | pest or weed control (Crabgrass (CG) [1]) [%] | pest or weed control at 4483.4 g/ha (Crabgrass (CG) [1]) [%] | pest or weed control at 2241.7 g/ha (Johnson grass (JG) [2]) [%] | pest or weed control at 4483.4 g/ha (Johnson grass (JG) [2]) [%] | pest or weed control at 2241.7 g/ha (Barnyard grass (BG) [3]) [%] | pest or weed control at 4483.4 g/ha (Amaranth pigweed (PW) [4]) [%] | pest or weed control at 2241.7 g/ha (Turnip (TP) [5]) [%] | pest or weed control at 4483.4 g/ha (Turnip (TP) [5]) [%] | pest or weed control at 2241.7 g/ha (Cotton (CT) [6]) [%] | pest or weed control at 4483.4 g/ha (Cotton (CT) [6]) [%] | pest or weed control at 2241.7 g/ha (Corn (CN) [7]) [%] | pest or weed control at 4483.4 g/ha (Corn (CN) [7]) [%] | pest or weed control at 2241.7 g/ha (Bean (BN) [8]) [%] | pest or weed control at 4483.4 g/ha (Bean (BN) [8]) [%] | pest or weed control (Crabgrass (CG) [9]) [%] | pest or weed control at 4483.4 g/ha (Crabgrass (CG) [9]) [%] | pest or weed control (Johnson grass (JG) [10]) [%] | pest or weed control at 4483.4 g/ha (Johnson grass (JG) [10]) [%] | pest or weed control at 2241.7 g/ha (Barnyard grass (BG) [11]) [%] | pest or weed control at 4483.4 g/ha (Amaranth pigweed (PW) [12]) [%] | further results
CNC(=O)Nc1nnc(C(F)F)s1 [Example 67] | 80 | 90 | 40 | 50 | 50 | 100 | 60 | 100 | 0 | 80 | 0 | 70 | 0 | 90 | 80 | 80 | 40 | 90 | 80 | 100 | pest or weed control at 2241.7 g/ha (Turnip (TP) [13]): 100%; pest or weed control at 4483.4 g/ha (Turnip (TP) [13]): 100%; pest or weed control at 2241.7 g/ha (Cotton (CT) [14]): 100%; pest or weed control at 4483.4 g/ha (Cotton (CT) [14]): 100%; pest or weed control (Corn (CN) [15]): 40%; pest or weed control at 4483.4 g/ha (Corn (CN) [15]): 70%; pest or weed control at 2241.7 g/ha (Bean (BN) [16]): 90%; pest or weed control at 4483.4 g/ha (Bean (BN) [16]): 100%
CNC(=O)Nc1nnc(C(F)(F)C(F)(F)F)s1 [Example 68] | 50 | 90 | 20 | 30 | 30 | 100 | 60 | 60 | 60 | 90 | 30 | 50 | 0 | 100 | 90 | 100 | 80 | 80 | 60 | 100 | pest or weed control at 2241.7 g/ha (Amaranth pigweed (PW) [4]; 2 lb/acre): 100%; pest or weed control at 2241.7 g/ha (Amaranth pigweed (PW) [12]; 2 lb/acre): 100%; pest or weed control at 2241.7 g/ha (Turnip (TP) [13]): 100%; pest or weed control at 4483.4 g/ha (Turnip (TP) [13]): 100%; pest or weed control at 2241.7 g/ha (Cotton (CT) [14]): 80%; pest or weed control at 4483.4 g/ha (Cotton (CT) [14]): 100%; pest or weed control (Corn (CN) [15]): 50%; pest or weed control at 4483.4 g/ha (Corn (CN) [15]): 100%; pest or weed control at 2241.7 g/ha (Bean (BN) [16]): 90%; pest or weed control at 4483.4 g/ha (Bean (BN) [16]): 100%
